Among the targets are ZAP70 (Homo sapiens, UniProt P43403); ALK (Homo sapiens, UniProt Q9UM73); TLK2 (Homo sapiens, UniProt Q86UE8); BRSK2 (Homo sapiens, UniProt Q8IWQ3); EPHB1 (Homo sapiens, UniProt P54762); RIPK4 (Homo sapiens, UniProt P57078); KIT(V559D) (Homo sapiens, UniProt P10721, V559D); MET(M1250T) (Homo sapiens, UniProt P08581, M1250T); TAOK2 (Homo sapiens, UniProt Q9UL54); PIK3CA(H1047L) (Homo sapiens, UniProt P42336, H1047L); MARK1 (Homo sapiens, UniProt Q9P0L2); FLT3(R834Q) (Homo sapiens, UniProt P36888, R834Q); NEK11 (Homo sapiens, UniProt Q8NG66); RIPK1 (Homo sapiens, UniProt Q13546); SRPK1 (Homo sapiens, UniProt Q96SB4); FER (Homo sapiens, UniProt P16591).

Holding throughout (assay): biochemical
Common to all, as to design: KINOMEscan active-site competition binding, percent of control (100 = no competition)
What all share (settings): competition binding, percent control

Experiment [1] addresses EGFR(L747-S752del, P753S) (Homo sapiens, UniProt P00533, DEL747-752/P753S).
The target of experiment [2] is T1, ABL1(F317I)-nonphosphorylated (Homo sapiens, UniProt P00519, F317I).
T1 construct: nonphosphorylated

A further experiment addresses T2, SIK (Homo sapiens, UniProt P57059).
T2 construct: gene SIK1

In another experiment the target is T3, CDK4-cyclinD3 (Homo sapiens, UniProt P11802).
T3 construct: cyclinD3

Experiment [3] addresses T4, ABL1(Q252H)-nonphosphorylated (Homo sapiens, UniProt P00519, Q252H).
T4 construct: nonphosphorylated

Experiment [4] deals with T5, ABL1(T315I)-phosphorylated (Homo sapiens, UniProt P00519, T315I).
T5 construct: phosphorylated

Chain of EGFR(L747-S752del, P753S) (P00533 with tags, fused parts or gaps DEL747-752/P753S): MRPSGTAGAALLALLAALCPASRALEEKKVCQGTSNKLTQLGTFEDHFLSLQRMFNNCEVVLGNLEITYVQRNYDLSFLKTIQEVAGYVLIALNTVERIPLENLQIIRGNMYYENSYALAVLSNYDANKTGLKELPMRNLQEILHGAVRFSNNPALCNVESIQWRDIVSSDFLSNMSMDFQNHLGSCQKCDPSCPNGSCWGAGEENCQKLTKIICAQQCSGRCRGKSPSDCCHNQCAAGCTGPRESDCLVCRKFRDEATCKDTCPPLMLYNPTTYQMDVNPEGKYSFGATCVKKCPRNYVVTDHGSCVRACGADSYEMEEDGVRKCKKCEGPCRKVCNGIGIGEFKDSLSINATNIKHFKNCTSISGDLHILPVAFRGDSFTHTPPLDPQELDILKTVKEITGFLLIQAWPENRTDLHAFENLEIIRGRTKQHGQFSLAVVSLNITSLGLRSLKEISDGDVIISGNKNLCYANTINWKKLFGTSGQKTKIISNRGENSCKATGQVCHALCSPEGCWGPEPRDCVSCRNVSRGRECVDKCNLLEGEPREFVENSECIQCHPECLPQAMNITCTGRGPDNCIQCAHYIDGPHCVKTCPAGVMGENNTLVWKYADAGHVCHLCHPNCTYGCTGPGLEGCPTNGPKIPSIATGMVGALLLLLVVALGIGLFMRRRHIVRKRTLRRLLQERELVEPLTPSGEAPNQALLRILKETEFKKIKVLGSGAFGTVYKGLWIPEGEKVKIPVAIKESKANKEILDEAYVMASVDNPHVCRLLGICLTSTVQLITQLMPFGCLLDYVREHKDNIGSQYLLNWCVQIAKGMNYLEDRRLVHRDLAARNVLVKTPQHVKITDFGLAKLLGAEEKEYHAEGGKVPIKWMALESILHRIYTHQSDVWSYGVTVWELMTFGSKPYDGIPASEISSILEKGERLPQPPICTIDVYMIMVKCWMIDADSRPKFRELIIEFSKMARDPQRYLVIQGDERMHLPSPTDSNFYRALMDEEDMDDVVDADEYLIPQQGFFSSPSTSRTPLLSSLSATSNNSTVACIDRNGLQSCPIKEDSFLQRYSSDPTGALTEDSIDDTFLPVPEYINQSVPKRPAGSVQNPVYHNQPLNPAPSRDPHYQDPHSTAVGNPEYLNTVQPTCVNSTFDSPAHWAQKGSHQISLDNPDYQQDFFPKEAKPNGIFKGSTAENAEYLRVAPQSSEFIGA
Chain of TAOK2 (Q9UL54 whole entry): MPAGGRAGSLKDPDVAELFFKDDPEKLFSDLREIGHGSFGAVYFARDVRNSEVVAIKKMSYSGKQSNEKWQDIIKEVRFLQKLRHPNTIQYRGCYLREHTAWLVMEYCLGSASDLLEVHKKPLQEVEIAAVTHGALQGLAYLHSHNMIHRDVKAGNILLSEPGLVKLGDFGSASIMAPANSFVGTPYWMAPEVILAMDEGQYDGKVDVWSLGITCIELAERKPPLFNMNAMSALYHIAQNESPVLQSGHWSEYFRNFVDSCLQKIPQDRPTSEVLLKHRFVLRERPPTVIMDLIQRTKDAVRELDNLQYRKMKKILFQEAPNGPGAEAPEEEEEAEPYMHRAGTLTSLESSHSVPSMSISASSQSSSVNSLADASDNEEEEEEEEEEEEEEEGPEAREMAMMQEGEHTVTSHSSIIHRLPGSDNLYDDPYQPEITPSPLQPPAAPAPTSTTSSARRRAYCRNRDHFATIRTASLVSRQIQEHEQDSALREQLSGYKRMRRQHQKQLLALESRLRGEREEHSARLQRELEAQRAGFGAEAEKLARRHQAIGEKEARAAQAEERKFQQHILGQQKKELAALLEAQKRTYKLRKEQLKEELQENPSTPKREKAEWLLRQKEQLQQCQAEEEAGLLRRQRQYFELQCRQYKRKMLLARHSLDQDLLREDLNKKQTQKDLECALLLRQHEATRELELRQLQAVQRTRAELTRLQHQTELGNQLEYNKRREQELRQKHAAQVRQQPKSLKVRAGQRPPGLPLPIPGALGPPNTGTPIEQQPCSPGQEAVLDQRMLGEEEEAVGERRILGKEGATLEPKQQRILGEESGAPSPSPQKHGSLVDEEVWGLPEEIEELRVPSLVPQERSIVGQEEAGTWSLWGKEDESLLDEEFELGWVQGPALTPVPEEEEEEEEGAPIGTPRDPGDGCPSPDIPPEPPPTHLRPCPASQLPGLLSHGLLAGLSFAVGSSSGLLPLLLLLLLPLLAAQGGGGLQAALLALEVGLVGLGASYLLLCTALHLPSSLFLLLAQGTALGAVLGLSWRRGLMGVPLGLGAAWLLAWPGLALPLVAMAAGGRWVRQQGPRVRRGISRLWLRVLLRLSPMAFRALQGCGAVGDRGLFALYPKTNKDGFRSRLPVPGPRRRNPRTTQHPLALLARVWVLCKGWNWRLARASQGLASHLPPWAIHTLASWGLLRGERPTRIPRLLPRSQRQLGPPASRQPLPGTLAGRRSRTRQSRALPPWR
Chain of MARK1 (Q9P0L2 whole entry): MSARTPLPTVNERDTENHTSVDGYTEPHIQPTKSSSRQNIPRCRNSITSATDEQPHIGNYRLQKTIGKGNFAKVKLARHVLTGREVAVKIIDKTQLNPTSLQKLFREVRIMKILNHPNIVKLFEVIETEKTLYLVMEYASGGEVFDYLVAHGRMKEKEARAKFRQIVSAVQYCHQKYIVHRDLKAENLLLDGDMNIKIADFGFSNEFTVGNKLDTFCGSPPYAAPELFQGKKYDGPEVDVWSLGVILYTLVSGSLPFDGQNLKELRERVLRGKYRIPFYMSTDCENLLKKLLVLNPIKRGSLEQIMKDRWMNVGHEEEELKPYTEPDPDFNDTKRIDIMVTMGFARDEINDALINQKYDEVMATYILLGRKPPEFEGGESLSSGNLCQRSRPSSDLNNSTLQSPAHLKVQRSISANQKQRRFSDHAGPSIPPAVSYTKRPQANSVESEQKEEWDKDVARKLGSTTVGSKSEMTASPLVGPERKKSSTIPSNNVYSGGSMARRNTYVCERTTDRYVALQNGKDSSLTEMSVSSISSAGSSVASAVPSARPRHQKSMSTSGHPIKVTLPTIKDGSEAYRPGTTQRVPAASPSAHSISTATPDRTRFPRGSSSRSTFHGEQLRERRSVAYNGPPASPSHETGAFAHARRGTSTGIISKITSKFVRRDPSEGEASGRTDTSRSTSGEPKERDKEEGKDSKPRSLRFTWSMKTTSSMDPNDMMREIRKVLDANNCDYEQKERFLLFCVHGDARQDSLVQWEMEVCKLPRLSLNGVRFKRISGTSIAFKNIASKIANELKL
Chain of EPHB1 (P54762 whole entry): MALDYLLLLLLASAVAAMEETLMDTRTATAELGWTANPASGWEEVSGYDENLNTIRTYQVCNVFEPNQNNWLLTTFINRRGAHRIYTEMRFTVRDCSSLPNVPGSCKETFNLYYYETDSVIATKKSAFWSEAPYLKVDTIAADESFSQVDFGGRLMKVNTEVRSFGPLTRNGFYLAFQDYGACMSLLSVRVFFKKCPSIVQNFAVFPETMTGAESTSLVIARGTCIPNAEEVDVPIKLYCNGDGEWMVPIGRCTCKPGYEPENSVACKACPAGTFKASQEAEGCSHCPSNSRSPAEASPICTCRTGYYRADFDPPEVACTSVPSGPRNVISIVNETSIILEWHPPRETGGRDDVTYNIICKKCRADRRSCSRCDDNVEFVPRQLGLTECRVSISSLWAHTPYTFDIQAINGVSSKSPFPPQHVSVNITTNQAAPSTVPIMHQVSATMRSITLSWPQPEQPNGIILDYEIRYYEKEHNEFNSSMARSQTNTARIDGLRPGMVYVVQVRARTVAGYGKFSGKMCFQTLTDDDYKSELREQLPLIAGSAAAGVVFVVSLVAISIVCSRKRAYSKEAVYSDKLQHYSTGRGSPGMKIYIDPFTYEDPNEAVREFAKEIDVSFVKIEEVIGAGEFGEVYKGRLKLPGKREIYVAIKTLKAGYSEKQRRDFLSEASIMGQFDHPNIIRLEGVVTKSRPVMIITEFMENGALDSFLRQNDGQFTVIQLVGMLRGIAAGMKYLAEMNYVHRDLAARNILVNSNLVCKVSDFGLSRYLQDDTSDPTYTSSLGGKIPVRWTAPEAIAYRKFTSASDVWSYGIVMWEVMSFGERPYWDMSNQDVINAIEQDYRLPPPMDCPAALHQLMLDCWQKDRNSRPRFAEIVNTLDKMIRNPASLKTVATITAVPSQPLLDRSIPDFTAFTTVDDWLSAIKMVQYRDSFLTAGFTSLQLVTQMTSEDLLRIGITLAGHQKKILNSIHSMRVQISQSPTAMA
Chain of NEK11 (Q8NG66 whole entry): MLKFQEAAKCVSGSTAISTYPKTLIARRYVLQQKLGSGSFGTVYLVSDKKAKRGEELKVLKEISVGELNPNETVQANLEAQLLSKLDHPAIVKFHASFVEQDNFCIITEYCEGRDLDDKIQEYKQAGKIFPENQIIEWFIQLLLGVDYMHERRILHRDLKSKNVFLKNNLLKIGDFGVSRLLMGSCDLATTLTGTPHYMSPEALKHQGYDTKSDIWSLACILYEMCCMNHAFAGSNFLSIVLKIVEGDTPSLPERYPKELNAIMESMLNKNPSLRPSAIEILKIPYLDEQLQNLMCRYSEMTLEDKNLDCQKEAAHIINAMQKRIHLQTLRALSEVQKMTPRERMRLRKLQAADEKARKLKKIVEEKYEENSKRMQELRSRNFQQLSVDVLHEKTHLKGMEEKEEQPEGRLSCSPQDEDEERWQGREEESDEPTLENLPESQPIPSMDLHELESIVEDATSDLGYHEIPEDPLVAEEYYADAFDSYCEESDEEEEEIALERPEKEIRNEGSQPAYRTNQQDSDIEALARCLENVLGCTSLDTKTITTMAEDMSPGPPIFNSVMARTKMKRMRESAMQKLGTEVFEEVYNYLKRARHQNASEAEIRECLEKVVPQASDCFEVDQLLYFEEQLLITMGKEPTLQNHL

On to `COc1ccc(-c2cnccc2-c2cnc(NC(=O)C(C)C)s2)c(C(F)(F)F)c1` [CRT0105446, N-{5-[3-(4-Methoxy-2-trifluoromethyl-phenyl)-pyridin-4-yl]-hiazol-2-yl}-isobutyramide], for which the remaining binding at 10 µM on ZAP70 was determined as 86%; at ALK, 89%; at TLK2, 99%; in experiment [1], 92%; in experiment [2], 100%; at BRSK2, 59%. Besides, the remaining binding at 10 µM was 88% at EPHB1; 84% on SIK; 100% on RIPK4; 48% on CDK4-cyclinD3; 39% at KIT(V559D); 93% on MET(M1250T). The remaining binding at 10 µM stood at 76% at TAOK2; 83% in experiment [3]; 100% at PIK3CA(H1047L); 87% at MARK1; 88% on FLT3(R834Q); 99% in experiment [4]. Besides, the remaining binding at 10 µM came out at 100% on NEK11, 90% at RIPK1, 100% at SRPK1 and 100% on FER.
Regarding `Cc1ccc(-c2cnccc2-c2cnc(Nc3ccc(O)cc3)s2)c(Cl)c1` [CRT0105950, 4-{5-[3-(2-Chloro-4-methyl-phenyl)-pyridin-4-yl]-thiazol-2-ylamino}-phenol], the remaining binding at 10 µM on ZAP70 was 99%; at ALK, 20%; on TLK2 it was 56%; in experiment [1] it was 66%; in experiment [2] it was 93%; on BRSK2, 33%. The remaining binding at 10 µM stood at 80% at EPHB1; 6.4% at SIK; 99% on RIPK4; 13% on CDK4-cyclinD3; 0.75% on KIT(V559D); 19% at MET(M1250T). Also, the remaining binding at 10 µM on TAOK2 is 21%; in experiment [3] it was 70%; at PIK3CA(H1047L), 97%; on MARK1, 5.8%; on FLT3(R834Q) it was 18%; in [4] it was 79%. The remaining binding at 10 µM on NEK11 is 84%; at RIPK1, 17%; at SRPK1 it was 74%; on FER, 57%.
